Reference: the NIST ThermoML archive (doi:10.1021/je401036f)
Numbers after ± are expanded uncertainties.

Test: xn = mol fraction of the nth substance listed
Conditions: 101 kPa, Liquid; for viscosity: Concentric cylinders viscometry; for mass density: Vibrating tube method

CC(O)CN (stereo not given) [1-amino-2-propanol] + CCCCO
Conditions	mass density [kg/m3]	viscosity [mPa·s]
288.15 K, x1 = 0.1	827.167 ± 0.26	4.019 ± 0.12
288.15 K, x1 = 0.2005	841.339 ± 0.3	4.952 ± 0.15
288.15 K, x1 = 0.3	855.625 ± 0.34	6.238 ± 0.19
288.15 K, x1 = 0.3999	870.246 ± 0.38	8.046 ± 0.25
288.15 K, x1 = 0.5	885.14 ± 0.43	10.48 ± 0.33
288.15 K, x1 = 0.6001	900.478 ± 0.49	13.85 ± 0.43
288.15 K, x1 = 0.7	916.099 ± 0.55	18.2 ± 0.57
288.15 K, x1 = 0.8	932.069 ± 0.62	24.34 ± 0.77
288.15 K, x1 = 0.8997	948.249 ± 0.7	32.26 ± 1
288.15 K, x1 = 1	964.544 ± 0.8	43.7 ± 1.4
293.15 K, x1 = 0.1	823.338 ± 0.26	3.444 ± 0.11
293.15 K, x1 = 0.2005	837.455 ± 0.3	4.218 ± 0.13
293.15 K, x1 = 0.3	851.736 ± 0.33	5.202 ± 0.16
293.15 K, x1 = 0.3999	866.053 ± 0.38	6.617 ± 0.2
293.15 K, x1 = 0.5	881.2 ± 0.43	8.455 ± 0.26
293.15 K, x1 = 0.6001	896.524 ± 0.48	10.88 ± 0.34
293.15 K, x1 = 0.7	912.152 ± 0.55	14.08 ± 0.44
293.15 K, x1 = 0.8	928.119 ± 0.62	18.34 ± 0.58
293.15 K, x1 = 0.8997	944.296 ± 0.7	23.93 ± 0.76
293.15 K, x1 = 1	960.598 ± 0.79	31.68 ± 1
298.15 K, x1 = 0.1	819.488 ± 0.26	2.989 ± 0.092
298.15 K, x1 = 0.2005	833.571 ± 0.3	3.62 ± 0.11
298.15 K, x1 = 0.3	847.825 ± 0.33	4.398 ± 0.14
298.15 K, x1 = 0.3999	862.123 ± 0.38	5.507 ± 0.17
298.15 K, x1 = 0.5	877.169 ± 0.43	6.858 ± 0.21
298.15 K, x1 = 0.6001	892.563 ± 0.48	8.782 ± 0.27
298.15 K, x1 = 0.7	908.181 ± 0.55	11.03 ± 0.35
298.15 K, x1 = 0.8	924.144 ± 0.62	14.18 ± 0.45
298.15 K, x1 = 0.8997	940.31 ± 0.7	18.16 ± 0.57
298.15 K, x1 = 1	956.618 ± 0.79	23.54 ± 0.75
303.15 K, x1 = 0.1	815.611 ± 0.26	2.615 ± 0.081
303.15 K, x1 = 0.2005	829.669 ± 0.3	3.129 ± 0.097
303.15 K, x1 = 0.3	843.892 ± 0.33	3.756 ± 0.12
303.15 K, x1 = 0.3999	858.167 ± 0.38	4.639 ± 0.14
303.15 K, x1 = 0.5	873.195 ± 0.42	5.721 ± 0.18
303.15 K, x1 = 0.6001	888.575 ± 0.48	7.156 ± 0.22
303.15 K, x1 = 0.7	904.186 ± 0.54	8.892 ± 0.28
303.15 K, x1 = 0.8	920.144 ± 0.61	11.17 ± 0.35
303.15 K, x1 = 0.8997	936.303 ± 0.69	14.06 ± 0.44
303.15 K, x1 = 1	952.612 ± 0.78	17.9 ± 0.57
308.15 K, x1 = 0.1	811.706 ± 0.26	2.298 ± 0.071
308.15 K, x1 = 0.2005	825.735 ± 0.3	2.726 ± 0.084
308.15 K, x1 = 0.3	839.932 ± 0.33	3.23 ± 0.1
308.15 K, x1 = 0.3999	854.42 ± 0.37	3.944 ± 0.12
308.15 K, x1 = 0.5	869.288 ± 0.42	4.788 ± 0.15
308.15 K, x1 = 0.6001	884.561 ± 0.48	5.904 ± 0.18
308.15 K, x1 = 0.7	900.162 ± 0.54	7.231 ± 0.23
308.15 K, x1 = 0.8	916.116 ± 0.61	8.949 ± 0.28
308.15 K, x1 = 0.8997	932.266 ± 0.69	11.1 ± 0.35
308.15 K, x1 = 1	948.577 ± 0.78	13.88 ± 0.44
313.15 K, x1 = 0.1	807.768 ± 0.26	2.03 ± 0.063
313.15 K, x1 = 0.2005	821.766 ± 0.3	2.389 ± 0.074
313.15 K, x1 = 0.3	835.94 ± 0.33	2.801 ± 0.087
313.15 K, x1 = 0.3999	850.406 ± 0.37	3.377 ± 0.11
313.15 K, x1 = 0.5	865.257 ± 0.42	4.049 ± 0.13
313.15 K, x1 = 0.6001	880.518 ± 0.48	4.929 ± 0.15
313.15 K, x1 = 0.7	896.106 ± 0.54	5.957 ± 0.19
313.15 K, x1 = 0.8	912.054 ± 0.61	7.272 ± 0.23
313.15 K, x1 = 0.8997	928.196 ± 0.69	8.9 ± 0.28
313.15 K, x1 = 1	944.515 ± 0.77	10.96 ± 0.35
318.15 K, x1 = 0.1	803.791 ± 0.26	1.801 ± 0.056
318.15 K, x1 = 0.2005	817.764 ± 0.29	2.104 ± 0.065
318.15 K, x1 = 0.3	831.911 ± 0.33	2.445 ± 0.076
318.15 K, x1 = 0.3999	846.355 ± 0.37	2.915 ± 0.091
318.15 K, x1 = 0.5	861.194 ± 0.42	3.454 ± 0.11
318.15 K, x1 = 0.6001	876.438 ± 0.47	4.159 ± 0.13
318.15 K, x1 = 0.7	892.017 ± 0.54	4.969 ± 0.16
318.15 K, x1 = 0.8	907.96 ± 0.6	5.989 ± 0.19
318.15 K, x1 = 0.8997	924.096 ± 0.68	7.238 ± 0.23
318.15 K, x1 = 1	940.423 ± 0.77	8.798 ± 0.28
323.15 K, x1 = 0.1	799.764 ± 0.26	1.606 ± 0.05
323.15 K, x1 = 0.2005	813.705 ± 0.29	1.865 ± 0.058
323.15 K, x1 = 0.3	827.834 ± 0.33	2.144 ± 0.067
323.15 K, x1 = 0.3999	842.264 ± 0.37	2.535 ± 0.079
323.15 K, x1 = 0.5	857.087 ± 0.42	2.973 ± 0.093
323.15 K, x1 = 0.6001	872.324 ± 0.47	3.541 ± 0.11
323.15 K, x1 = 0.7	887.889 ± 0.53	4.192 ± 0.13
323.15 K, x1 = 0.8	903.828 ± 0.6	4.994 ± 0.16
323.15 K, x1 = 0.8997	919.961 ± 0.68	5.96 ± 0.19
323.15 K, x1 = 1	936.293 ± 0.76	7.166 ± 0.23
328.15 K, x1 = 0.1	795.685 ± 0.27	1.436 ± 0.044
328.15 K, x1 = 0.2005	809.606 ± 0.29	1.662 ± 0.052
328.15 K, x1 = 0.3	823.708 ± 0.33	1.887 ± 0.059
328.15 K, x1 = 0.3999	838.127 ± 0.37	2.218 ± 0.069
328.15 K, x1 = 0.5	852.936 ± 0.42	2.579 ± 0.081
328.15 K, x1 = 0.6001	868.161 ± 0.47	3.047 ± 0.095
328.15 K, x1 = 0.7	883.72 ± 0.53	3.568 ± 0.11
328.15 K, x1 = 0.8	899.655 ± 0.6	4.211 ± 0.13
328.15 K, x1 = 0.8997	915.789 ± 0.67	4.976 ± 0.16
328.15 K, x1 = 1	932.13 ± 0.76	5.915 ± 0.19
333.15 K, x1 = 0.1	791.549 ± 0.27	1.302 ± 0.04
333.15 K, x1 = 0.2005	805.451 ± 0.29	1.499 ± 0.047
333.15 K, x1 = 0.3	819.532 ± 0.33	1.699 ± 0.053
333.15 K, x1 = 0.3999	833.936 ± 0.37	1.973 ± 0.061
333.15 K, x1 = 0.5	848.734 ± 0.41	2.286 ± 0.071
333.15 K, x1 = 0.6001	863.951 ± 0.47	2.663 ± 0.083
333.15 K, x1 = 0.7	879.505 ± 0.53	3.099 ± 0.097
333.15 K, x1 = 0.8	895.441 ± 0.59	3.618 ± 0.11
333.15 K, x1 = 0.8997	911.577 ± 0.67	4.225 ± 0.13
333.15 K, x1 = 1	927.93 ± 0.75	4.986 ± 0.16
